# Laboratory results as given in patent publication US12533349B2, “Drug formulations for reservoir-based delivery” (Medtronic, Inc., priority 2020, dated 2026).
# What was measured:
# Assay type in all cases: physicochemical
# [1] = Hansen Solubility Parameters (HSP) determination; details: Hansen Solubility Parameter
# Source text: (§1) Without intending to be bound by theory, it is believed that HSP provides a thermodynamic indication of whether a compound will migrate into a component of the reservoir-based delivery device, such as a polymeric component of the reservoir-based delivery device. Greater differences between HSPs of the compound and the component tend to result in lower amounts of migration.
# For purposes of the present disclosure, differential HSP values of less than 7 are considered to be of high risk, HSP values between 7 and 10 are considered to be of medium risk, and HSP values of greater than 10 are considered to be of low risk for the drug to migrate into the component of the reservoir-based delivery device. Differential HSP values may be determined as described in Kitak, et al. (2015), “Determination of Solubility Parameters of Ibuprofen and Ibuprofen Lysinate,” Molecules, 20:21549-21568. One useful measurement of differential HSP values is described in Equation (4) of Kitak, et al. on page 21550. Other useful measurements include Equations (5), (6), and (7) of Kitak, et al. on pages 21550-21551.
# The HSP of bupivacaine and the drug contacting material (silicone) were determined.
# [2] = Differential HSP between drug and drug-contacting material of SynchroMed II infusion device; details: bupivacaine vs drug-contacting material (silicone); less than 7 is considered high risk of migration
# Source text: as §1
# For purposes of the present disclosure, differential HSP values of less than 7 are considered to be of high risk, HSP values between 7 and 10 are considered to be of medium risk, and HSP values of greater than 10 are considered to be of low risk for the drug to migrate into the component of the reservoir-based delivery device. Differential HSP values may be determined as described in Kitak, et al. (2015), “Determination of Solubility Parameters of Ibuprofen and Ibuprofen Lysinate,” Molecules, 20:21549-21568. […]
# In the following, non-limiting example development of a bupivacaine formulation for use in a reservoir-based delivery device is shown. The drug delivery device for which compatibility was determined was Medtronic, Inc.'s SynchroMed® II implantable infusion device. […]
# The differential HSP value was determined to be 4.2, which is considered to be high risk of the drug migrating into the drug-contacting material.
# [3] = Potential for chemical reaction between functional groups of drug and drug-contacting material; details: drug-contacting material silicone
# Source text: The presence of certain functional groups on the drug or components of the formulation and certain functional groups on drug formulation contacting materials of the reservoir-based delivery devices may result in concern for chemical reaction between one or more ingredients of the formulation and the drug formulation contacting materials.
# For example, silyl ether groups which may be present on silicone drug formulation contacting materials may react with amine groups, phosphate groups, or carboxylate groups of ingredients of the drug formulation.
# In the following, non-limiting example development of a bupivacaine formulation for use in a reservoir-based delivery device is shown. The drug delivery device for which compatibility was determined was Medtronic, Inc.'s SynchroMed® II implantable infusion device. The material of the component of the SynchroMed® II for which compatibility was tested was silicone. Bupivacaine may migrate into silicone without consideration of formulation.
# In addition, it was determined that bupivacaine has a high risk of potential for chemical reaction between functional groups in bupivacaine and the functional groups in the drug-contacting material.
compound,measurement,setting,value
CCCCN1CCCCC1C(=O)Nc1c(C)cccc1C (centres unmarked) [bupivacaine],HSP δD,[1]; δD component,18.1
same,HSP δH,[1]; δH component,6.03
same,HSP δP,[1]; δP component,6.46
same,differential HSP value,[2],4.2
same,risk of potential for chemical reaction between functional groups in bupivacaine and in the drug-contacting material,[3],high risk
